Results from paper PMC11845477, “Exploring the principles behind antibiotics with limited resistance” (Nature Communications, 2025).
Where a SMILES comes first, the peptide text is derived from it. Bridges are numbered along the chain shown (N, C = ends). [ ]: non-standard residue; d: D form. The star is where a group is joined. X1 = NC[C@@H](CC(=O)*)c1cccc(Cl)c1; Dab = NCC[C@H](N)C(=O)O; Dap = NC[C@H](N)C(=O)O

Key:
Test in all cases: Frequency-of-resistance (FoR) assay, relative MIC of mutants
[1] = tested on: A. baumannii ATCC 17978 (SEN) and A. baumannii ATCC BAA-1605 (MDR); type: cell-based, Acinetobacter baumannii
Method: (§1) The susceptibility of antibiotics to resistance development was evaluated in two strains of each bacterial species: a multidrug-resistant strain and an antibiotic-sensitive strain of Escherichia coli, Klebsiella pneumoniae, Acinetobacter baumannii, and Pseudomonas aeruginosa. To explore first-step resistance, we previously used a standard protocol for spontaneous frequency-of-resistance analysis (FoR assay) at multiple concentrations of each antibiotic[10],[28],[31]–[33]. […] For all other combinations, approximately 10^10 bacterial cells were exposed to one of each antibiotic on agar plates for two days at concentrations where the given strain is susceptible. We examined resistance levels by contrasting the minimum inhibitory concentration (MICs) of the mutated strains to the original wild-type bacterial strain (i.e., relative MIC).
(§2) To estimate the frequency of spontaneous mutations that confer resistance in a microbial population, we conducted a frequency of resistance (FoR) assay following established protocols[10],[31]–[33]. […] Prior to plating, bacteria were grown overnight in MHB medium at 37 °C and 250 RPM, then centrifuged and washed in MHB. All experiments were performed in triplicate, and plates were incubated at 37 °C for 48 hours. Total colony-forming units (CFUs) were determined by plating appropriate dilutions onto antibiotic-free MHB agar. Resistance frequencies were calculated by dividing the number of resistant colonies by the initial viable cell count. From the plates with the highest antibiotic concentration, ten colonies were selected for MIC determination and whole-genome sequencing.
(§3) A robotic liquid handling system was used to automatically prepare a 11 to 16-step serial dilution in 384-well microtiter plates (Greiner). A final concentration of 5 × 10^5 bacterial cells per mL were inoculated into each well containing 60 µL MHB medium. Bacterial cultures were incubated at 37 °C with continuous shaking (Infors shaker, 900 rpm with 3 mm throw) for 18 hours (2 replicates from each). Cell growth was monitored by measuring the optical density (OD600 values, using Biotek Synergy microplate reader). MIC was defined as the antibiotic concentration of complete growth inhibition (i.e., OD600 < 0.05). Relative MIC was calculated as follows:1 relativeMIC=MICevolved/MICancestor […]
(§4) Supplementary Figure 3. Resistance levels following the frequency of resistance assay across bacterial strains. The level of resistance was measured as the fold change in relative MIC between evolved and ancestral strains. Data are grouped by bacterial strain (A. baumannii (AB), E. coli (EC), K. pneumoniae (KP), and P. aeruginosa (PA)) and categorized as either multidrug-resistant (MDR) or sensitive (SEN). Each data point represents a laboratory evolved line, and boxplots show the median, first and third quartiles, with whiskers indicating the 5th and 95th percentiles. […]
(§5) analysis was performed using two-sided Dunn’s post-hoc test with Benjamini-Hochberg correction for multiple comparisons (**/ * indicates p < 0.01/ 0.05). For detailed information on antibiotic and bacterial species, see Supplementary Table 1. For mode of action groups, refer to Table 1. Source data are provided as a Source Data file.

[2] = tested on: K. pneumoniae ATCC 10031 (SEN) and K. pneumoniae ATCC 700603 (MDR); type: cell-based, Klebsiella pneumoniae
Method: as §1, §2, §3, §4, §5

[3] = tested on: E. coli ATCC 25922 (SEN) and E. coli NCTC13846 (MDR); type: cell-based, Escherichia coli
Method: as §1, §2, §3, §4, §5

SMILES: CC(C)C[C@@H]1NC(=O)[C@@H](Cc2ccccc2)NC(=O)[C@H](CCN)NC(=O)[C@@H](NC(=O)[C@H](CN)NC(=O)[C@@H](NC(=O)C[C@H](CN)c2cccc(Cl)c2)[C@@H](C)O)CCNC(=O)[C@H]([C@@H](C)O)NC(=O)[C@H](CCN)NC(=O)[C@H](CCN)NC1=O [SPR206] (X1-T[Dap][Dab][Dab][dF]L[Dab][Dab]T; lactam 3-C (inferred); N-terminus assumed)
- MIC of evolved line ([1]; Acinetobacter baumannii ATCC 17978 (AB-SEN), evolved line 1): 0.125 µg/mL
- MIC of evolved line ([1]; Acinetobacter baumannii ATCC 17978 (AB-SEN), evolved line 2): 0.125 µg/mL
- MIC of evolved line ([1]; Acinetobacter baumannii ATCC 17978 (AB-SEN), evolved line 3): 0.125 µg/mL
- Relative MIC ([1]; Acinetobacter baumannii ATCC 17978 (AB-SEN), evolved line 1 versus ancestor): 1
- Relative MIC ([1]; Acinetobacter baumannii ATCC 17978 (AB-SEN), evolved line 2 versus ancestor): 1
- Relative MIC ([1]; Acinetobacter baumannii ATCC 17978 (AB-SEN), evolved line 3 versus ancestor): 1
- MIC of evolved line ([1]; Acinetobacter baumannii ATCC BAA 1605 (AB-MDR), evolved line 2): 0.25 µg/mL
- MIC of evolved line ([1]; Acinetobacter baumannii ATCC BAA 1605 (AB-MDR), evolved line 1): 0.25 µg/mL
- Relative MIC ([1]; Acinetobacter baumannii ATCC BAA 1605 (AB-MDR), evolved line 1 versus ancestor): 2
- Relative MIC ([1]; Acinetobacter baumannii ATCC BAA 1605 (AB-MDR), evolved line 2 versus ancestor): 2
- MIC of evolved line ([1]; Acinetobacter baumannii ATCC BAA 1605 (AB-MDR), evolved line 3): 0.25 µg/mL
- Relative MIC ([1]; Acinetobacter baumannii ATCC BAA 1605 (AB-MDR), evolved line 3 versus ancestor): 2
- Relative MIC ([1]; FoR assay, Acinetobacter baumannii ATCC 17978 (AB-SEN), evolved line 1): 1
- Relative MIC ([1]; FoR assay, Acinetobacter baumannii ATCC 17978 (AB-SEN), evolved line 2): 1
- Relative MIC ([1]; FoR assay, Acinetobacter baumannii ATCC 17978 (AB-SEN), evolved line 3): 1
- Relative MIC ([1]; FoR assay, Acinetobacter baumannii ATCC BAA 1605 (AB-MDR), evolved line 1): 2
- Relative MIC ([1]; FoR assay, Acinetobacter baumannii ATCC BAA 1605 (AB-MDR), evolved line 2): 2
- Relative MIC ([1]; FoR assay, Acinetobacter baumannii ATCC BAA 1605 (AB-MDR), evolved line 3): 2
- Relative MIC ([2]; FoR assay, Klebsiella pneumoniae ATCC 10031 (KP-SEN), evolved line 1): 64
- Relative MIC ([2]; FoR assay, Klebsiella pneumoniae ATCC 10031 (KP-SEN), evolved line 2): 1
- Relative MIC ([2]; FoR assay, Klebsiella pneumoniae ATCC 10031 (KP-SEN), evolved line 3): 256
- Relative MIC ([2]; FoR assay, Klebsiella pneumoniae ATCC 700603 (KP-MDR), evolved line 1): 64
- Relative MIC ([2]; FoR assay, Klebsiella pneumoniae ATCC 700603 (KP-MDR), evolved line 2): 64
- Relative MIC ([2]; FoR assay, Klebsiella pneumoniae ATCC 700603 (KP-MDR), evolved line 3): 64
- MIC of evolved line ([2]; Klebsiella pneumoniae ATCC 10031 (KP-SEN), evolved line 1): 32 µg/mL
- MIC of evolved line ([2]; Klebsiella pneumoniae ATCC 10031 (KP-SEN), evolved line 2): 0.25 µg/mL
- MIC of evolved line ([2]; Klebsiella pneumoniae ATCC 10031 (KP-SEN), evolved line 3): 128 µg/mL
- Relative MIC ([2]; Klebsiella pneumoniae ATCC 10031 (KP-SEN), evolved line 1 versus ancestor): 64
- Relative MIC ([2]; Klebsiella pneumoniae ATCC 10031 (KP-SEN), evolved line 2 versus ancestor): 1
- Relative MIC ([2]; Klebsiella pneumoniae ATCC 10031 (KP-SEN), evolved line 3 versus ancestor): 256
- MIC of evolved line ([2]; Klebsiella pneumoniae ATCC 700603 (KP-MDR), evolved line 1): 32 µg/mL
- MIC of evolved line ([2]; Klebsiella pneumoniae ATCC 700603 (KP-MDR), evolved line 2): 32 µg/mL
- MIC of evolved line ([2]; Klebsiella pneumoniae ATCC 700603 (KP-MDR), evolved line 3): 32 µg/mL
- Relative MIC ([2]; Klebsiella pneumoniae ATCC 700603 (KP-MDR), evolved line 1 versus ancestor): 64
- Relative MIC ([2]; Klebsiella pneumoniae ATCC 700603 (KP-MDR), evolved line 2 versus ancestor): 64
- Relative MIC ([2]; Klebsiella pneumoniae ATCC 700603 (KP-MDR), evolved line 3 versus ancestor): 64
- MIC of evolved line ([3]; E. coli ATCC 25922 (EC-SEN), evolved line 1): 32 µg/mL
- Relative MIC ([3]; E. coli ATCC 25922 (EC-SEN), evolved line 1, evolved vs ancestor): 128
- MIC of evolved line ([3]; E. coli ATCC 25922 (EC-SEN), evolved line 2): 32 µg/mL
- Relative MIC ([3]; E. coli ATCC 25922 (EC-SEN), evolved line 2, evolved vs ancestor): 128
- MIC of evolved line ([3]; E. coli ATCC 25922 (EC-SEN), evolved line 3): 32 µg/mL
- Relative MIC ([3]; E. coli ATCC 25922 (EC-SEN), evolved line 3, evolved vs ancestor): 128
- MIC of evolved line ([3]; E. coli NCTC 13846 (EC-MDR), evolved line 1): 64 µg/mL
- Relative MIC ([3]; E. coli NCTC 13846 (EC-MDR), evolved line 1, evolved vs ancestor): 16
- MIC of evolved line ([3]; E. coli NCTC 13846 (EC-MDR), evolved line 2): 64 µg/mL
- Relative MIC ([3]; E. coli NCTC 13846 (EC-MDR), evolved line 2, evolved vs ancestor): 16
- MIC of evolved line ([3]; E. coli NCTC 13846 (EC-MDR), evolved line 3): 64 µg/mL
- Relative MIC ([3]; E. coli NCTC 13846 (EC-MDR), evolved line 3, evolved vs ancestor): 16
- Relative MIC ([3]; FoR assay, Escherichia coli ATCC 25922 (EC-SEN), evolved line 1): 128
- Relative MIC ([3]; FoR assay, Escherichia coli ATCC 25922 (EC-SEN), evolved line 2): 128
- Relative MIC ([3]; FoR assay, Escherichia coli ATCC 25922 (EC-SEN), evolved line 3): 128
- Relative MIC ([3]; FoR assay, Escherichia coli NCTC 13846 (EC-MDR), evolved line 1): 16
- Relative MIC ([3]; FoR assay, Escherichia coli NCTC 13846 (EC-MDR), evolved line 2): 16
- Relative MIC ([3]; FoR assay, Escherichia coli NCTC 13846 (EC-MDR), evolved line 3): 16
